Results as given in ChEMBL document CHEMBL5120928, “A New Chemotype of Chemically Tractable Nonsteroidal Estrogens Based on a Thieno[2,3-d]pyrimidine Core” (ACS Med Chem Lett, 2022).

Legend:
[1] = biological target: T1, Estrogen receptor (Homo sapiens, UniProt P03372)
T1 sequence (P03372 whole entry): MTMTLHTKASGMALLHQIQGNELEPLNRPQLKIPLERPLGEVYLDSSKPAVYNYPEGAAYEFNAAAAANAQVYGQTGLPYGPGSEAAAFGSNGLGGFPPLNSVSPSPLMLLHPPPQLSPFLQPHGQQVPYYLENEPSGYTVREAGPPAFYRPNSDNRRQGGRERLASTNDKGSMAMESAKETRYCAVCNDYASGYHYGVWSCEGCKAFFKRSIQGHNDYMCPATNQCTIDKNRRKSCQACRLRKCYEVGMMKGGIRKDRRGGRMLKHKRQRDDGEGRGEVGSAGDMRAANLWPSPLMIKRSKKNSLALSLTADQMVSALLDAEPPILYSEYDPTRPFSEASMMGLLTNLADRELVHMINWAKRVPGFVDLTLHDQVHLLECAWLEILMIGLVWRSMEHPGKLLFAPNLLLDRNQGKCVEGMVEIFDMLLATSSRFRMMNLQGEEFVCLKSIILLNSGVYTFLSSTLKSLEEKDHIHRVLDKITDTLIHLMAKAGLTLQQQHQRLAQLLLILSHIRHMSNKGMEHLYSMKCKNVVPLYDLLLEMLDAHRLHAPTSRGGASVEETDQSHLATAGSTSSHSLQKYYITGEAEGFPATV
Description: Agonist activity at RST7-ERalpha (unknown origin) co-expressed with (ERE)TK-luciferase reporter plasmid transfected in human HepG2 cells incubated for 24 hrs by Renilla luciferase based reporter assay

[2] = biological target: T1, Estrogen receptor; remark: listed apart in the source

EC50 [1]: > 10 µM
EC50 [2]: > 10 µM
SMILES: Oc1ccc(CNc2nc(Cl)nc3scc(-c4ccccc4)c23)cc1O
